Data published in patent publication US9969742B2, “Imidazotriazinone compounds” (Ironwood Pharmaceuticals, Inc., priority 2012, dated 2018).

The molecules below were run against T1, PDE9A2 (Homo sapiens, UniProt O76083) (assay: Phosphodiesterase enzyme screening assay, PDE9A2). Details: 4.0 μM cGMP substrate, 1 hour at R.T.; read-out: Band (PDE9A2 IC50).
T1 construct: purchased Reaction Biology Corporation, Malvern, Pa
Assay type: biochemical
From the text: Compounds of the invention were screened against PDE1A, PDE1B, PDE2A, PDE3A, PDE3B, PDE4A1A, PDE4B1, PDE4D3, PDE5A1, PDE6C, PDE7A, PDE8A1, PDE9A2, PDE10A2 AND PDE11A isoforms of the phosphodiesterase enzyme to determine activity and overall selectivity through comparative analysis. […] Where 8-methoxy-IBMX and Zaprinast were used as reference inhibitors.
The phosphodiesterase enzyme isoforms were obtained from a commercial retailer (Reaction Biology Corporation, Malvern, Pa.) for use in the instant screening assay.
The analysis was completed using the Caliper LabChip 3000 and a 12-sipper LabChip. LabChip assays are separations-based, meaning that the product and substrate are electrophoretically separated, thereby minimizing interferences and yielding the highest data quality available on any screening platform. […] High Z′ values, few false positives, few false negatives and analytical quality reproducibility are the reasons cited for the increasing reliance on the LabChip assays.
The off-chip incubation mobility-shift phosphodiesterase assay uses a microfluidic chip to measure the conversion of a fluorescent cyclic AMP substrate to a 5′-AMP product, or a cyclic GMP substrate to a 5′-GMP product. The reaction mixture, from a microtiter plate well, is introduced through a capillary sipper onto the chip, where the fluorescent substrate and product are separated by electrophoresis and detected via laser-induced fluorescence. […] The precision of microfluidics allows researchers to detect subtle interactions between drug candidates and therapeutic targets.
Reactions were carried out in 100 mM HEPES (pH 7.5), 5 mM MgCl2, 1 mM DTT, 0.003% Brij, 4.0 μM cGMP substrate. The reaction was started by addition of cGMP or cAMP and incubated for 1 hour at R.T. The reaction was terminated by the addition of stop buffer containing 100 mM HEPES (pH 7.5), 15 mM EDTA, 0.015% Brij-35, 5% DMSO. Cyclic AMP/GMP substrate and 5′-AMP/5′-GMP product were separated by charge using electrophoretic mobility shift. Product formed was compared to control wells to determine inhibition or enhancement of enzyme activity.
Data points were averages of quadruplicate wells and error bars represented the SEM for each point.

T1 sequence (O76083 1-533 isoform O76083-2): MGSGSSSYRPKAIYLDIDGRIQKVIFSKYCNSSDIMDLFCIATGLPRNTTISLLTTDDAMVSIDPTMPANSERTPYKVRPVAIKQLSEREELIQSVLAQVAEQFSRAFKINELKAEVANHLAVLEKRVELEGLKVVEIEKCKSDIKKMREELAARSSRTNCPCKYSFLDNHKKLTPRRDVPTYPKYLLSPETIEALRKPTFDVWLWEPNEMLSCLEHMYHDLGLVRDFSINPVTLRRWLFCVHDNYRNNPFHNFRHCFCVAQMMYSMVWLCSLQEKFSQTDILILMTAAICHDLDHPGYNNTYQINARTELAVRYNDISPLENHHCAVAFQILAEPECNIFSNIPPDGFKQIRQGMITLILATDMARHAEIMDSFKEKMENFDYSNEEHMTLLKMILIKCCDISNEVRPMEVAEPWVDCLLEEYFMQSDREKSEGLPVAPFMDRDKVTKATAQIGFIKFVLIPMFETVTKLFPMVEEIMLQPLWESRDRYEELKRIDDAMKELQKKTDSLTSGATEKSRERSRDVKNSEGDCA

Row | Compound | IC50 [µM]
1 | CC1CN(Cc2ccc(F)cc2)CC1c1nn2c(-c3ccccc3C(F)(F)F)ncc2c(=O)[nH]1 (single isomer, unassigned; (+)) | < 1
2 | CC1CN(Cc2ccccc2)CC1c1nn2c(-c3ccccc3C(F)(F)F)ncc2c(=O)[nH]1 (single isomer, unassigned; (+)) | < 1
3 | CC1CN(Cc2ncccn2)CC1c1nn2c(-c3ccccc3C(F)(F)F)ncc2c(=O)[nH]1 (single isomer, unassigned; (+)) | < 1
4 | Cc1cnccc1-c1ncc2c(=O)[nH]c(C3CN(Cc4ccc(F)cc4)CC3C)nn12 (single isomer, unassigned; (+)) [(+)-2-((3,4-trans)-1-(4-fluorobenzyl)-4-methylpyrrolidin-3-yl)-7-(3-methylpyridin-4-yl) imidazo [5,1-f] [1,2,4] triazin-4 (3H)-one] | < 1

Second part, the molecule after the results:

Row | IC50 [µM] | Compound
5 | < 1 | CC1CN(Cc2nc3ccccn3n2)CC1c1nn2c(-c3ccccc3C(F)(F)F)ncc2c(=O)[nH]1 (single isomer, unassigned; (+)) [(+)-2-((3,4-trans)-1-([1,2,4]triazolo[1,5-a]pyridin-2-ylmethyl)-4-methylpyrrolidin-3-yl)-7-(2-(trifluoromethyl)phenyl)imidazo[5,1-f][1,2,4]triazin-4(3H)-one]
6 | < 1 | CC1CN(Cc2nc3ccccn3n2)CC1c1nn2c(-c3ccccc3F)ncc2c(=O)[nH]1 (single isomer, unassigned; (+)) [(+)-2-((3,4-trans)-1-([1,2,4]triazolo[1,5-a]pyridin-2-ylmethyl)-4-methylpyrrolidin-3-yl)-7-(2-fluorophenyl)imidazo[5,1-f][1,2,4]triazin-4(3H)-one]
7 | < 1 | Cc1cnccc1-c1ncc2c(=O)[nH]c(C3CN(Cc4nc5ccccn5n4)CC3C)nn12 (single isomer, unassigned; (+)) [(+)-2-((3,4-trans)-1-([1,2,4]triazolo[1,5-a]pyridin-2-ylmethyl)-4-methylpyrrolidin-3-yl)-7-(3-methylpyridin-4-yl)imidazo[5,1-f][1,2,4]triazin-4(3H)-one]

Same assay, conditions: Table 1; 10 concentrations; 4.0 μM cGMP substrate; 1 hour at R.T.; read-out: Band (PDE9A2 IC50)

Row | Compound | IC50 [µM]
8 | CC1CN(Cc2ccccc2)CC1c1nn2c(C3CCN(C)CC3)ncc2c(=O)[nH]1 (single isomer, unassigned) [2-((3,4-trans)-1-benzyl-4-methylpyrrolidin-3-yl)-7-(1-methylpiperidin-4-yl)imidazo[5,1-f][1,2,4]triazin-4(3H)-one] | 1 to 10
9 | CC1CN(C(C)c2ccccc2)CC1c1nn2c(C3CCOCC3)ncc2c(=O)[nH]1 (single isomer, unassigned; (+)) [listing 1 of 2 here] | 1 to 10
10 | CC1CN(C(C)c2ccccc2)CC1c1nn2c(C3CCOCC3)ncc2c(=O)[nH]1 (single isomer, unassigned; (+)) [listing 2 of 2 here] | < 1
11 | CC1CN(C(=O)c2ccc(F)cc2)CC1c1nn2c(C3CCOCC3)ncc2c(=O)[nH]1 (single isomer, unassigned; (+)) [(+)-2-((3,4-trans)-1-(4-fluorobenzoyl)-4-methylpyrrolidin-3-yl)-7-(tetrahydro-2H-pyran-4-yl)imidazo[5,1-f][1,2,4]triazin-4(3H)-one] | 1 to 10

The next lines start with the values.

Row | IC50 [µM] | Compound
12 | < 1 | Cc1cnc(CN2C[C@@H](C)[C@H](c3nn4c(C5CCOCC5)ncc4c(=O)[nH]3)C2)cn1 (relative stereo) [(+)-2-((3,4-trans)-4-methyl-1-((5-methylpyrazin-2-yl)methyl)pyrrolidin-3-yl)-7-(tetrahydro-2H-pyran-4-yl)imidazo[5,1-f][1,2,4]triazin-4(3H)-one]
13 | 1 to 10 | Cc1ccc(Cl)cc1-c1ncc2c(=O)[nH]c([C@@H]3CNC[C@H]3C)nn12 (relative stereo) [(−)-7-(5-chloro-2-methylphenyl)-2-((3,4-trans)-4-methylpyrrolidin-3-yl)imidazo[5,1-f][1,2,4]triazin-4(3H)-one]
14 | < 1 | CC1CN(S(=O)(=O)c2ccccc2F)CC1c1nn2c(C3CCOCC3)ncc2c(=O)[nH]1 (single isomer, unassigned; (+)) [(+)-2-((3,4-trans)-1-((2-fluorophenyl)sulfonyl)-4-methylpyrrolidin-3-yl)-7-(tetrahydro-2H-pyran-4-yl)imidazo[5,1-f][1,2,4]triazin-4(3H)-one]
15 | < 1 | CC1CN(S(=O)(=O)c2cccc(F)c2)CC1c1nn2c(C3CCOCC3)ncc2c(=O)[nH]1 (single isomer, unassigned; (+)) [(+)-2-((3,4-trans)-1-((3-fluorophenyl)sulfonyl)-4-methylpyrrolidin-3-yl)-7-(tetrahydro-2H-pyran-4-yl)imidazo[5,1-f][1,2,4]triazin-4(3H)-one]
16 | < 1 | CC1CN(S(=O)(=O)c2ccc(F)cc2)CC1c1nn2c(C3CCOCC3)ncc2c(=O)[nH]1 (single isomer, unassigned; (+)) [(+)-2-((3,4-trans)-1-((4-fluorophenyl)sulfonyl)-4-methylpyrrolidin-3-yl)-7-(tetrahydro-2H-pyran-4-yl)imidazo[5,1-f][1,2,4]triazin-4(3H)-one]
17 | 1 to 10 | CCS(=O)(=O)N1CC(C)C(c2nn3c(C4CCOCC4)ncc3c(=O)[nH]2)C1 (single isomer, unassigned; (+)) [(+)-2-((3,4-trans)-1-(ethylsulfonyl)-4-methylpyrrolidin-3-yl)-7-(tetrahydro-2H-pyran-4-yl)imidazo[5,1-f][1,2,4]triazin-4(3H)-one]

Same assay, conditions: Table 2; 10 concentrations; 4.0 μM cGMP substrate; 1 hour at R.T.; read-out: Band (PDE9A2 IC50)

Row | IC50 [µM] | Compound
18 | < 1 | CC1CN(Cc2nc(C(F)(F)F)cc(C(F)(F)F)n2)CC1c1nn2c(C3CCOCC3)ncc2c(=O)[nH]1 (single isomer, unassigned; (+)) [(+)-2-((3,4-trans)-1-((4,6-bis(trifluoromethyl)pyrimidin-2-yl)methyl)-4-methylpyrrolidin-3-yl)-7-(tetrahydro-2H-pyran-4-yl)imidazo[5,1-f][1,2,4]triazin-4(3H)-one]
19 | < 1 | CC1CN(Cc2ncc(F)c(N3CCOCC3)n2)CC1c1nn2c(C3CCOCC3)ncc2c(=O)[nH]1 (single isomer, unassigned; (+)) [(+)-2-((3,4-trans)-1-((5-fluoro-4-morpholinopyrimidin-2-yl)methyl)-4-methylpyrrolidin-3-yl)-7-(tetrahydro-2H-pyran-4-yl)imidazo[5,1-f][1,2,4]triazin-4(3H)-one]

Same assay, conditions: read-out: Band (PDE9A2 IC50)

Row | Compound | IC50 [µM]
20 | CC1CN(CC2CCNCC2)CC1c1nn2c(C3CCOCC3)ncc2c(=O)[nH]1 (single isomer, unassigned; (+)) | < 1
21 | CC1CN(Cc2ccc(Cl)cc2)CC1c1nn2c(-c3cccc(F)c3)ncc2c(=O)[nH]1 (single isomer, unassigned; (+)) [(+)-2-((3,4-trans)-1-(4-chlorobenzyl)-4-methylpyrrolidin-3-yl)-7-(3-fluorophenyl)imidazo[5,1-f][1,2,4]triazin-4(3H)-one] | 1 to 10
22 | Cc1ccncc1-c1ncc2c(=O)[nH]c(C3CN(Cc4ccc(F)cc4)CC3C)nn12 (single isomer, unassigned; (+)) [(+)-2-((3,4-trans)-1-(4-fluorobenzyl)-4-methylpyrrolidin-3-yl)-7-(4-methylpyridin-3-yl)imidazo[5,1-f][1,2,4]triazin-4(3H)-one] | < 1
23 | CC1CN(Cc2nc3ccccc3[nH]2)CC1c1nn2c(-c3ccc(F)cc3)ncc2c(=O)[nH]1 (single isomer, unassigned; (+)) [(+)-2-((3,4-trans)-1-((1H-benzo[d]imidazol-2-yl)methyl)-4-methylpyrrolidin-3-yl)-7-(4-fluorophenyl)imidazo[5,1-f][1,2,4]triazin-4(3H)-one] | < 1

Other lines, results leading:

Row | IC50 [µM] | Compound
24 | < 1 | CC1CN(Cc2nc3ccccn3n2)CC1c1nn2c(-c3ccccc3)ncc2c(=O)[nH]1 (single isomer, unassigned; (+)) [(+)-2-((3,4-trans)-1-([1,2,4]triazolo[1,5-a]pyridin-2-ylmethyl)-4-methylpyrrolidin-3-yl)-7-phenylimidazo[5,1-f][1,2,4]triazin-4(3H)-one]
25 | < 1 | CC1CN(CC2CCCC2)CC1c1nn2c(C3CCOCC3)ncc2c(=O)[nH]1 (single isomer, unassigned; (+)) [(+)-2-((3,4-trans)-1-(cyclopentylmethyl)-4-methylpyrrolidin-3-yl)-7-(tetrahydro-2H-pyran-4-yl)imidazo[5,1-f][1,2,4]triazin-4(3H)-one]
26 | 1 to 10 | CC1CN(CC2CC2)CC1c1nn2c(C3CCOCC3)ncc2c(=O)[nH]1 (single isomer, unassigned; (+)) [(+)-2-((3,4-trans)-1-(cyclopropylmethyl)-4-methylpyrrolidin-3-yl)-7-(tetrahydro-2H-pyran-4-yl)imidazo[5,1-f][1,2,4]triazin-4(3H)-one]
